Test results taken from patent US20260138976A1 (Hoffmann-La Roche Inc., priority 2022, published 2026).

Tests used:
DGK α kinase = biological target: T1, DGK α kinase (Homo sapiens, UniProt P23743); assay: DGKalpha kinase ADP Glo assay run by Reaction Biology Corp.; type: biochemical; details: 2 nM kinase, 50 µM ATP, 500 μM DLG, 10-dose duplicate
T1 construct: purchased Reaction Biology Corp. (contract assay service)
Protocol: (§1) DGK α and ζ kinases use ATP to phosphorylate the substrate 1,2-dilauroyl-sn-glycerol (DLG). ATP is converted to ADP as a result of this enzymatic reaction.
(§2) After the kinase reaction, an ATP-depletion reagent is added to terminate the kinase reaction and deplete any remaining ATP, leaving only ADP. Second, a detection reagent is added to simultaneously convert ADP to ATP and allow the newly synthesized ATP to be converted to light using a coupled luciferase/luciferin reaction.
(§3) DGK α and ζ kinase ADP Glo assays were ran by Reaction Biology Corp., 1 Great Valley Parkway, Suite 2, Malvern, 19355, PA, USA. Information provided by the service provider are the following: DGK α and ζ kinases were used at 2 nM final concentration. Reactions were carried out at 50 µM ATP. 500 μM of the substrate DLG (Dilauroyl-sn-glycerol) was used.

DGK ζ kinase = biological target: T2, DGK ζ kinase (Homo sapiens, UniProt Q13574); assay: DGKzeta kinase ADP Glo assay run by Reaction Biology Corp.; type: biochemical; details: 2 nM kinase, 50 µM ATP, 500 μM DLG, 10-dose duplicate
T2 construct: purchased Reaction Biology Corp. (contract assay service)
T2 sequence (Q13574 whole entry): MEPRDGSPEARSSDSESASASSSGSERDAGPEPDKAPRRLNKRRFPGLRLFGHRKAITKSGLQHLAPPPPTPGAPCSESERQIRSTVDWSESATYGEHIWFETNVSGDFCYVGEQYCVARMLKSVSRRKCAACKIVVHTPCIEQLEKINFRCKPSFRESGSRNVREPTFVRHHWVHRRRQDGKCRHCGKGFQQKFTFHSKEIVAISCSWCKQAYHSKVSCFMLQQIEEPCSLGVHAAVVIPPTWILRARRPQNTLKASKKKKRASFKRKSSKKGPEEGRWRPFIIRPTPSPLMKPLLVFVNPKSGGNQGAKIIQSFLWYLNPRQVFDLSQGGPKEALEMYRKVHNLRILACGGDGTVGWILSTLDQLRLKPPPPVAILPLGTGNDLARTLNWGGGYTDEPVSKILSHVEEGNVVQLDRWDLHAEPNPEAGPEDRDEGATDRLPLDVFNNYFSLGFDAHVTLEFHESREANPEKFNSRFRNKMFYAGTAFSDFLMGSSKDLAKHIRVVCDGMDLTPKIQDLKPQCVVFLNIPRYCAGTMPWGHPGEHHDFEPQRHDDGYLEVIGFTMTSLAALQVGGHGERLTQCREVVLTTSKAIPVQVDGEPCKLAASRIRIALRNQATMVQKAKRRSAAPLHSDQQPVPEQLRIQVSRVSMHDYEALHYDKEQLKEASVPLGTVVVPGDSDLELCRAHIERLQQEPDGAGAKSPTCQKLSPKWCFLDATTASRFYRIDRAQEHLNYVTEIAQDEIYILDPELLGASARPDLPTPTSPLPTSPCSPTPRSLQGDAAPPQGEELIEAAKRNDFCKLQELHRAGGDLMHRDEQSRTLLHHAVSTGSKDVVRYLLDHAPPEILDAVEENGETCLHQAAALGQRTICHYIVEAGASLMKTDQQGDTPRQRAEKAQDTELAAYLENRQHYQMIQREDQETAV
Protocol: as §1, §2, §3

primary human T-cells = assay: IL2 secretion measurements (24 h, CD3-stimulated T-cells, PBS counter screen); type: cell-based; details: for Emax IL2 (% activation): CD3 condition, normalised to DMSO (neutral) and 20 μM reference compound A1 = 100%; for EC50: Homo sapiens, T-cell, CD3-stimulated primary human T-cells, IL2 secretion, fitted sigmoidal curve, read-out: Tcell IL2 CD3 EC50
Summary of the method: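 Expanded primary human T-cells (100k/well) were plated on anti-CD3-coated or PBS-only plates with compound in a 5–6 point dose response (top 20 or 10 μM final, 3.333-fold, 0.2% DMSO). IL-2 in 24 h supernatants was quantified by ProQuantum immunoassay or ELISA. Values were normalized to DMSO and 20 μM reference compound A1 (100%), giving EC50 and Emax.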

T1 sequence (P23743 whole entry): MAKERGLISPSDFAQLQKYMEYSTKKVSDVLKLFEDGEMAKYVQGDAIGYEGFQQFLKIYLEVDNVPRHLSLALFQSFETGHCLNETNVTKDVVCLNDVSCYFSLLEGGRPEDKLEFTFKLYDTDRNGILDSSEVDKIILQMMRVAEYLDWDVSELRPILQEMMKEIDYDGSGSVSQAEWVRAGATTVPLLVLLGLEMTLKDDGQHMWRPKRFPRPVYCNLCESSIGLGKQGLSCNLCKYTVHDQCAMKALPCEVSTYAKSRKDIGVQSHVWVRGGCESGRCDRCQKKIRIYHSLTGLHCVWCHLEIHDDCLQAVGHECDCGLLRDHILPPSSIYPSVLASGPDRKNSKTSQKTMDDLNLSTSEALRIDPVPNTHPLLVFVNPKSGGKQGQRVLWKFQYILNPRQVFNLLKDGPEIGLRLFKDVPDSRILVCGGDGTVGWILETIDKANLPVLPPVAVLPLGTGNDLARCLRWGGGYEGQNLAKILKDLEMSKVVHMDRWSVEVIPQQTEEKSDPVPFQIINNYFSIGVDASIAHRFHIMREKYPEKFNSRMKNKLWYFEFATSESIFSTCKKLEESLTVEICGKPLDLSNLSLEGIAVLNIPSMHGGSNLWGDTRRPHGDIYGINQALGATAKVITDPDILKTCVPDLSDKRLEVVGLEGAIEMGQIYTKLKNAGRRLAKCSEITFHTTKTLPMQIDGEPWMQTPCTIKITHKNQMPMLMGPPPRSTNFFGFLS

Row | Compound | IC50 (DGK α kinase) | IC50 (DGK ζ kinase) | Emax IL2 (% activation) (primary human T-cells) | EC50 (primary human T-cells)
1 | CC(C)(C#N)c1nnc(-c2cc3c(cc2F)S(=O)(=O)C[C@H](N)C(=O)N3Cc2ccc(-c3ccc(C(F)(F)F)cn3)cc2)o1 [Example 88, 2-[5-[(3R)-3-amino-8-fluoro-1,1,4-trioxo-5-[[4-[5-(trifluoromethyl)-2-pyridyl]phenyl]methyl]-2,3-dihydro-1λ^6,5-benzothiazepin-7-yl]-1,3,4-oxadiazol-2-yl]-2-methyl-propanenitrile] | 11.1 nM | 4.1 nM | 121 % activation | 264 nM
2 | CC(O)(c1nnc(-c2ccc3c(c2)N(Cc2ccc(-c4noc(C(F)(F)F)n4)cc2)C(=O)[C@@H](N)CS3(=O)=O)o1)C(F)(F)F (stereo partly drawn) [Example 96, (3R)-3-amino-1,1-dioxo-7-[5-(2,2,2-trifluoro-1-hydroxy-1-methyl-ethyl)-1,3,4-oxadiazol-2-yl]-5-[[4-[5-(trifluoromethyl)-1,2,4-oxadiazol-3-yl]phenyl]methyl]-2,3-dihydro-1λ^6,5-benzothiazepin-4-one] | 44.7 nM | 107 nM | 232 % activation | 1360 nM
